What was measured:
Format in all cases: functional
Set-up in all cases: scale not given: the % may be the effect or the level left
Rattus norvegicus [1] = organism: Rattus norvegicus; assay: Potential inhibitory activity of EAAT2 by the ability (250 uM) to attenuate the Na-dependent uptake of [3H]D-aspartate (5 uM) into synaptosomes of rat forebrain; conditions: Brain
[2] = Potential inhibitory activity of EAAT3 by the ability (500 uM) to attenuate the Na-dependent uptake of [3H]D-aspartate (25 uM) into C6 rat glioma cells
Rattus norvegicus [3] = organism: Rattus norvegicus; assay: Inhibitory activity (250 uM) against ATP dependent uptake of [3H]L-glutamate (250 uM) by isolated synaptic vesicles from rat forebrain to quantify activity at vesicular glutamate transporter
SNB-19 = assay: Inhibitory activity (500 uM) against Cl-dependent uptake of [3H]L-glutamate (100 uM) into SNB-19 human astrocytoma cells to determine activity at system Xc glutamate/cystine exchanger

| Structure (SMILES) | Activity (Rattus norvegicus [1]) [%] | Activity [2] [%] | Activity (Rattus norvegicus [3]) [%] | Activity (SNB-19) [%] |
| --- | --- | --- | --- | --- |
| CC1=C(C)C[C@H]2C(C(=O)O)NC(=O)[C@@H]2C1 (stereo partly specified) | 77 | 97 | 96 | 103 |
| CC(C)[C@H]1CN[C@H](C(=O)O)[C@H]1CC(=O)O | 22 | – | – | – |
| CC1=C(C)C[C@@H](C(N)C(=O)O)[C@H](C(=O)O)C1 (stereo partly specified) | 71 | 100 | 99 | 104 |
| N[C@@H](CCC(=O)O)C(=O)O | 28 | – | – | – |
| NC(C(=O)O)[C@@H]1C2C=CC(C2)[C@H]1C(=O)O (stereo partly specified) | 35 | 87 | 93 | 88 |
| O=C(O)C1NC(=O)[C@@H]2CC=CC[C@@H]12 (stereo partly specified) | 53 | 93 | 103 | 89 |
| NC(C(=O)O)[C@@H]1CC=CC[C@H]1C(=O)O (stereo partly specified) | 38 | 95 | 85 | 101 |
| NC(C(=O)O)[C@@H]1C2C=CC(CC2)[C@H]1C(=O)O (stereo partly specified) | 70 | 97 | 104 | 88 |

From ChEMBL document CHEMBL1134954, “Synthesis and preliminary evaluation of trans-3,4-conformationally-restricted glutamate and pyroglutamate analogues as novel EAAT2 inhibitors” (2002)
